# pIC50, pKi: −log10 of the molar value.
# How the values were obtained:
# Thromboxane-A synthase = target: T1, Thromboxane-A synthase (Homo sapiens, UniProt P24557); experiment: biochemical; type: tissue-based, Platelet; conditions: for IC50: platelet;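 as to all read-outs here: enzyme inhibition assay with PGH2 supplied as substrate; in other assays of this panel Not Active means under 50% inhibition at 10 µM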
# T1 sequence (P24557 whole entry): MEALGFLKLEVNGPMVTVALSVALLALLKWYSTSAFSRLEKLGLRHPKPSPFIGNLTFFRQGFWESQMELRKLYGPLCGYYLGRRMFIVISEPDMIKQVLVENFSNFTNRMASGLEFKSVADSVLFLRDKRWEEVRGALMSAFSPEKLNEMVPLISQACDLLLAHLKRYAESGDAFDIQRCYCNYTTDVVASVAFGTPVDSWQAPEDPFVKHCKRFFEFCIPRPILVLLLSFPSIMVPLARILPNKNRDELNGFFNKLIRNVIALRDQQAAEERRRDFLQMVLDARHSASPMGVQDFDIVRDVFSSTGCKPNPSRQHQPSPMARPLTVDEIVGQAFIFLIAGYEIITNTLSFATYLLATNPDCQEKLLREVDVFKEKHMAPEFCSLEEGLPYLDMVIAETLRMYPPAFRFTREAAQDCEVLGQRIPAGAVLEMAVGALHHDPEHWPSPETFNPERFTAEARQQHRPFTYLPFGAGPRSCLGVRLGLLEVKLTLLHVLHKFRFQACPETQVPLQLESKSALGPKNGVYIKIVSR
# [1] = DRUGMATRIX: beta-Lactamase enzyme inhibition (substrate: Nitrocefin); design: species or system Bacillus cereus; conditions: Not Active = under 50% inhibition at 10 µM
# [2] = target: 5-hydroxytryptamine receptor 2B (Homo sapiens, UniProt P41595); type: cell membranes, CHO-K1, Membrane; conditions: for IC50: cho-k1; as to all read-outs here: in other assays of this panel Not Active means under 50% inhibition at 10 µM
# D(3) dopamine receptor = D(3) dopamine receptor (Homo sapiens, UniProt P35462); experiment: DRUGMATRIX: Dopamine D3 radioligand binding (ligand: [3H] Spiperone); type: cell membranes, CHO, Membrane; conditions: for IC50: cho
# [3] = DRUGMATRIX: Glutamate, Kainate radioligand binding (ligand: [3H] Kainic acid); type: cell membranes, Rattus norvegicus, Wistar, Brain, Membrane; conditions: Not Active = under 50% inhibition at 10 µM
# Glycine receptor = Glycine receptor (Rattus norvegicus, UniProt P22771+P24524+P07727+P20781); type: cell membranes, Wistar, Spinal cord, Membrane; also: in other assays of this panel Not Active means under 50% inhibition at 10 µM
# [4] = DRUGMATRIX: Imidazoline I2, Central radioligand binding (ligand: [3H] Idazoxan); type: cell membranes, Rattus norvegicus, Wistar, Cerebral cortex, Membrane; conditions: Not Active = under 50% inhibition at 10 µM
# [5] = DRUGMATRIX: Glutamate, AMPA radioligand binding (ligand: [3H] AMPA); type: cell membranes, Rattus norvegicus, Wistar, Cerebral cortex, Membrane; conditions: Not Active = under 50% inhibition at 10 µM
# [6] = target: T2, C-X-C chemokine receptor type 1 (Homo sapiens, UniProt P25024); also: in other assays of this panel Not Active means under 50% inhibition at 10 µM
# T2 sequence (P25024 whole entry): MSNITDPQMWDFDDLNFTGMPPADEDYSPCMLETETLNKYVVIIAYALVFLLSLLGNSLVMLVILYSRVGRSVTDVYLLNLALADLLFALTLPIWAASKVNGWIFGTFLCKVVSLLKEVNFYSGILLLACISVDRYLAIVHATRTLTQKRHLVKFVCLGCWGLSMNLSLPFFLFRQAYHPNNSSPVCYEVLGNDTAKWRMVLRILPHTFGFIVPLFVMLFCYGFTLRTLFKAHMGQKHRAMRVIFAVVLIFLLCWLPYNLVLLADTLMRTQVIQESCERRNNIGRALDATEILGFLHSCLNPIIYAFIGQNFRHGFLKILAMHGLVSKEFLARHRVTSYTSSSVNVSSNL
# [7] = target: Beta-3 adrenergic receptor (Homo sapiens, UniProt P13945); experiment: DRUGMATRIX: Adrenergic beta3 radioligand binding (ligand: [125I] Cyanopindolol); type: cell membranes, HEK293, Membrane; conditions: hek293; Not Active = under 50% inhibition at 10 µM
# [8] = DRUGMATRIX: GABAA, Chloride Channel, TBOB radioligand binding (ligand: [3H] TBOB); type: cell membranes, Rattus norvegicus, Wistar, Cerebral cortex, Membrane; conditions: Not Active = under 50% inhibition at 10 µM
# [9] = target: Sodium-dependent noradrenaline transporter (Homo sapiens, UniProt P23975); experiment: DRUGMATRIX: Norepinephrine Transporter radioligand binding (ligand: [125I] RTI-55); type: cell membranes, MDCK, Membrane; conditions: mdck; Not Active = under 50% inhibition at 10 µM
# Histamine H2 receptor = Histamine H2 receptor (Homo sapiens, UniProt P25021); type: cell membranes, CHO-K1, Membrane; conditions: cho-k1; also: in other assays of this panel Not Active means under 50% inhibition at 10 µM
# [10] = DRUGMATRIX: Platelet-Derived Growth Factor (PDGF) radioligand binding (ligand: [125I] PDGF); type: cell-based; conditions: nih3t3; Not Active = under 50% inhibition at 10 µM
# [11] = DRUGMATRIX: Sodium/nucleoside co-transporter radioligand binding (ligand: nitrobenzylthioinosine); type: cell membranes, Cavia porcellus, Dunkin-Hartley, Cerebral cortex, Membrane; conditions: Not Active = under 50% inhibition at 10 µM
# D(4) dopamine receptor = target: T3, D(4) dopamine receptor (Homo sapiens, UniProt P21917); experiment: DRUGMATRIX: Dopamine D4.2 radioligand binding (ligand: [3H] Spiperone); type: cell membranes, CHO-K1, Membrane; conditions: cho-k1; Not Active = under 50% inhibition at 10 µM
# T3 sequence (P21917 whole entry): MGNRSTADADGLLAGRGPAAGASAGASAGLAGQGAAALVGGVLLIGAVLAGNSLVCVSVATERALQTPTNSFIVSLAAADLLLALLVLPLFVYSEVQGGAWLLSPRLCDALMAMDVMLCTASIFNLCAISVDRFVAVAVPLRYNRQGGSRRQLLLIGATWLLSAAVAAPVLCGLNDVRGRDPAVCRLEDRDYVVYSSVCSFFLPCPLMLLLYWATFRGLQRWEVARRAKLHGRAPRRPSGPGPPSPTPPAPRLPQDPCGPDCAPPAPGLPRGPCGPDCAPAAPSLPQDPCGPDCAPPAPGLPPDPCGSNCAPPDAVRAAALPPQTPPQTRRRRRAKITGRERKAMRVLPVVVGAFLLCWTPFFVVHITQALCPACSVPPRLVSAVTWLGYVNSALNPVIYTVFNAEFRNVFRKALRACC
# [12] = target: 5-hydroxytryptamine receptor 6 (Homo sapiens, UniProt P50406); type: cell membranes, HeLa, Membrane; conditions: for IC50: hela
# Chain of 5-hydroxytryptamine receptor 6 (P50406 whole entry): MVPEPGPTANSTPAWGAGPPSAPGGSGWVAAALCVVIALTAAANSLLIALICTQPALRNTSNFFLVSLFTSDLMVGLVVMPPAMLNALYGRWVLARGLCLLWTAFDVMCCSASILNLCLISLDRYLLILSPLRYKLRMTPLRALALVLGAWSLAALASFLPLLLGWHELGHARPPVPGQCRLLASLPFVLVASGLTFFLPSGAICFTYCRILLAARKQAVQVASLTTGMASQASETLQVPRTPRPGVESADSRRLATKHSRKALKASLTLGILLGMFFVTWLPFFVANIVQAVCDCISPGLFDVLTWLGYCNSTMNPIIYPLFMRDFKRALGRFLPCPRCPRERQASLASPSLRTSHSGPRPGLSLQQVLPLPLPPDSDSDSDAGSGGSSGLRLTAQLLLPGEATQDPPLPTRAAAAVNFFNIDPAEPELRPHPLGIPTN
# Chain of D(3) dopamine receptor (P35462 whole entry): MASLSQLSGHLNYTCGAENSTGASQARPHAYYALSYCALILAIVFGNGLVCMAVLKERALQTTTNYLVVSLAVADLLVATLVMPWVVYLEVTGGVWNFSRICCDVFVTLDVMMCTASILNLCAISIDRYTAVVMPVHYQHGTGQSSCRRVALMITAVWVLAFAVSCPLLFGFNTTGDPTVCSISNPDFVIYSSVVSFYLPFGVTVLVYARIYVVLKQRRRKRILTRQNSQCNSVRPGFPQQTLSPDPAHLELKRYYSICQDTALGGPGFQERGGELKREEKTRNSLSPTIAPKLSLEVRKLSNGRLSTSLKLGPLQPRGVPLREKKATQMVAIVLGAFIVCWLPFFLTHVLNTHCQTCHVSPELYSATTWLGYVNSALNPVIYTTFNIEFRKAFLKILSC
# Chain of Histamine H2 receptor (P25021 whole entry): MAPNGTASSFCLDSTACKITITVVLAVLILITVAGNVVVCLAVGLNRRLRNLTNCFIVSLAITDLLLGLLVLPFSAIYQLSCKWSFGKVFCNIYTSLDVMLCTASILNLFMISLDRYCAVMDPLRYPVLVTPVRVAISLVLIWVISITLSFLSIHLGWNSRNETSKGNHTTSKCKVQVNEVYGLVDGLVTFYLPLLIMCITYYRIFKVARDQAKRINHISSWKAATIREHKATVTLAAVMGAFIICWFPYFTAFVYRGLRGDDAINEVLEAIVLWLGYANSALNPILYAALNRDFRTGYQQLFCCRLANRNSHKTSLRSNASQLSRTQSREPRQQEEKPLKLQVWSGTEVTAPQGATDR
# Chain of 5-hydroxytryptamine receptor 2B (P41595 whole entry): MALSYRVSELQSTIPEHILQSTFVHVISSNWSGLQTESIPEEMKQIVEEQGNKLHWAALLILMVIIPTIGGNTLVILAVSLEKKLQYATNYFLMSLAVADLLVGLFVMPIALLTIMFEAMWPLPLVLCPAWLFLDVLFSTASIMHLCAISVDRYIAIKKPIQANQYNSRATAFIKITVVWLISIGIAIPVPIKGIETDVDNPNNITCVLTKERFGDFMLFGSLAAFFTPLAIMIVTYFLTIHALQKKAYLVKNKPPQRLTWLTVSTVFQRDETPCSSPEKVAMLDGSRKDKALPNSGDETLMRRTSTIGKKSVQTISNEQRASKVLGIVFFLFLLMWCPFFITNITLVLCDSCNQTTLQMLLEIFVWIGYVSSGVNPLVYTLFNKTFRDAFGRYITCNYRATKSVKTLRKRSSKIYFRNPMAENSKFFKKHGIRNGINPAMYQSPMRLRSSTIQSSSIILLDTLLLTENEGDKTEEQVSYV
# Chain of Beta-3 adrenergic receptor (P13945 whole entry): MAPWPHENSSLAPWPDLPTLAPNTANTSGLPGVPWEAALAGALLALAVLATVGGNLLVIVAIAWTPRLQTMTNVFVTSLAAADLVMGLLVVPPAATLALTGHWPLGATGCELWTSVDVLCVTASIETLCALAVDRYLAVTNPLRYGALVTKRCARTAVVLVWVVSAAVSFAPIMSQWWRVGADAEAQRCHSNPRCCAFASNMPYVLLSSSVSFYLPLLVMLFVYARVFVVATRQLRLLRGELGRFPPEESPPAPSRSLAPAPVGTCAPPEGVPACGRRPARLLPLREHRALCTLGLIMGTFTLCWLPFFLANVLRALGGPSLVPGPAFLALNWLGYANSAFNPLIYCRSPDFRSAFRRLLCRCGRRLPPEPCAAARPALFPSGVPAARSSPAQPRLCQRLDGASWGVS
# Chain of Sodium-dependent noradrenaline transporter (P23975 whole entry): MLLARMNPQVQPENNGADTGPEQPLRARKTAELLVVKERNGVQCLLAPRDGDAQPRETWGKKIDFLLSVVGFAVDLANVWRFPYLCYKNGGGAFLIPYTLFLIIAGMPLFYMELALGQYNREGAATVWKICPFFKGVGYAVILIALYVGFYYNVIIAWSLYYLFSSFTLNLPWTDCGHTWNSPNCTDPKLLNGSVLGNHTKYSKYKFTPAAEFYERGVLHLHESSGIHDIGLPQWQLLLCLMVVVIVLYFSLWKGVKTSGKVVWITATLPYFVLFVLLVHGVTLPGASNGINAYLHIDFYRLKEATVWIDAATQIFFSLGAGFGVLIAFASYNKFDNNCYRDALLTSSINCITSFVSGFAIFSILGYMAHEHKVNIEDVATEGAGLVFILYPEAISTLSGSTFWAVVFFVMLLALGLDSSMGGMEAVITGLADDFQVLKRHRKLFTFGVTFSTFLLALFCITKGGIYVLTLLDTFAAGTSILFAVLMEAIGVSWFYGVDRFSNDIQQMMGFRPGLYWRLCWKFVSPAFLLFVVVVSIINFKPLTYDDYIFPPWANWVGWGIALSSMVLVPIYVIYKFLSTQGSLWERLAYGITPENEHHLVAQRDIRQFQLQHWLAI
Structure (SMILES),IC50 (Thromboxane-A synthase),IC50 [1],Ki [1],IC50 [2],IC50 [3],Ki [3],IC50 (Glycine receptor),IC50 [5],Ki [5],IC50 [6],IC50 [7],IC50 [8],Ki [8],IC50 [9],IC50 (Histamine H2 receptor),IC50 [10],Ki [10],IC50 [11],Ki [11],IC50 (D(4) dopamine receptor),further results
COc1ccc([C@@H]2Sc3ccccc3N(CCN(C)C)C(=O)[C@@H]2OC(C)=O)cc1 [DILTIAZEM],Not Active,Not Active,Not Active,Not Active,Not Active,Not Active,Not Active,Not Active,Not Active,Not Active,Not Active,Not Active,Not Active,Not Active,Not Active,Not Active,Not Active,Not Active,Not Active,Not Active,IC50 (D(3) dopamine receptor): Not Active; IC50 [4]: Not Active; Ki [4]: Not Active; IC50 [12]: Not Active
CCc1ccc(C(=O)C(C)CN2CCCCC2)cc1 (stereo not drawn) [EPERISONE],Not Active,Not Active,Not Active,Not Active,Not Active,Not Active,Not Active,Not Active,Not Active,Not Active,Not Active,Not Active,Not Active,Not Active,Not Active,Not Active,Not Active,Not Active,Not Active,Not Active,IC50 (D(3) dopamine receptor): Not Active; IC50 [4]: Not Active; Ki [4]: Not Active; IC50 [12]: Not Active
C=C1CC[C@H](O)C/C1=C/C=C1\CCC[C@]2(C)[C@@H]([C@H](C)/C=C/[C@H](C)C(C)C)CC[C@@H]12 [ERGOCALCIFEROL],Not Active,Not Active,Not Active,Not Active,Not Active,Not Active,Not Active,Not Active,Not Active,Not Active,Not Active,Not Active,Not Active,Not Active,Not Active,Not Active,Not Active,Not Active,Not Active,Not Active,IC50 (D(3) dopamine receptor): Not Active; IC50 [4]: Not Active; Ki [4]: Not Active; IC50 [12]: Not Active
CN1C[C@H](C(=O)N[C@]2(C)O[C@@]3(O)[C@@H]4CCCN4C(=O)[C@H](Cc4ccccc4)N3C2=O)C=C2c3cccc4[nH]cc(c34)C[C@H]21 [ERGOTAMINE],,Not Active,Not Active,,Not Active,Not Active,Not Active,Not Active,Not Active,Not Active,Not Active,Not Active,Not Active,Not Active,Not Active,Not Active,Not Active,Not Active,Not Active,Not Active,pIC50 (Thromboxane-A synthase; read-out: IC50): 5.51; pIC50 ([2]; read-out: IC50): 8.46; pKi ([2]; read-out: Ki): 8.66; pIC50 (D(3) dopamine receptor; read-out: IC50): 8.37; pKi (D(3) dopamine receptor; read-out: Ki): 8.83; pIC50 ([4]; read-out: IC50): 8.44; pKi ([4]; read-out: Ki): 8.61; pIC50 ([12]; read-out: IC50): 8.69; pKi ([12]; read-out: Ki): 9.02
CCc1cccc2c3c([nH]c12)C(CC)(CC(=O)O)OCC3 (stereo not drawn) [ETODOLAC],Not Active,Not Active,Not Active,Not Active,Not Active,Not Active,Not Active,Not Active,Not Active,Not Active,Not Active,Not Active,Not Active,Not Active,Not Active,Not Active,Not Active,Not Active,Not Active,Not Active,IC50 (D(3) dopamine receptor): Not Active; IC50 [4]: Not Active; Ki [4]: Not Active; IC50 [12]: Not Active

# — ChEMBL document CHEMBL1909046, “DrugMatrix in vitro pharmacology data”
